The results in this text go back to patent US12612441B2, “Polypeptide and therapeutic uses thereof” (Vitalixir (Beijing) Co., Ltd, priority 2019, dated 2026).

Where no end group is shown, it is not given here. [ ]: non-standard residue; d: D form. Aib = CC(C)(N)C(=O)O

For this experiment, the system named is db/db mice. In words: Blood glucose lowering in db/db mice (Example 7). The class given is in vivo. The following applies: db/db male mice, 30 nmol/kg subcutaneous single dose, blood glucose 0-10 hours, AUC, vs PBS control; FIG. 1. How it is done: db/db mice were housed in animal feeding rooms with strictly controlled environmental conditions. The temperature in the feeding room was maintained at 20-24° C. and the humidity was maintained at 40-70%. The temperature and humidity of the feeding room were monitored in real time by a temperature and humidity meter, and the temperature and humidity were recorded twice a day (once in the morning and once in the afternoon). The lighting in the animal feeding room was controlled by an electronic timing light-on system. The lights were turned on for 12 hours and turned off for 12 hours every day (on at 7:00 in the morning and off at 19:00 in the afternoon). During the experiment, the mice were individually housed in each cage, and toys were provided to the mice in each cage. During the experiment mice had free access to water. The db/db male mice (6 weeks old) were given one week to acclimate to the environmental conditions of the test facility. Baseline blood glucose and body weight were recorded for three days before the test (−3 day to −1 day). The mice were randomly grouped based on three-day blood glucose and body weight, with 6 mice in each group. The mice were injected subcutaneously with PBS (5 ml/kg, control group) or the peptide compounds 1, 2, 8, 16, 18, 19, 24, and 36 (30 nmol/kg) respectively at 10:00 am. Blood was collected at 0 hour before drug administration, and 1, 2, 4, 6, 8 and 10 hours after administration, and blood glucose was measured using a OneTouch glucose meter (Johnson & Johnson) and test strips. Blood glucose curves were plotted with time as the abscissa and the blood glucose value at different time point as the ordinate, the areas under the curve (AUC) were calculated, and the hypoglycemic effects and duration of time of the peptide compounds were compared.
As to “Y(aib)EGTFTSDLSI(aib)LEKEAVRLFIEWLLAGGPSSGAPPPS-NH2 (YXEGTFTSDLSIXLEKEAVRLFIEWLLAGGPSSGAPPPS; Aib; C-terminal amide; MOD_RES (2)..(2) X=aminoisobutyric aicd; MOD_RES (13)..(13) X=aminoisobutyric aicd; MOD_RES (39)..(39) AMIDATION, C-termianl amidation) [Compound 36]”, the blood glucose result is “significantly reduce blood glucose”.

On to “Y(aib)EGTFTSDLSIQLEKEAARLFIEWLLAGGPSSGAPPPS-NH2 (Y[Aib]EGTFTSDLSIQLEKEAARLFIEWLLAGGPSSGAPPPS-NH2; N-terminus assumed; SMILES CC[C@H](C)[C@H](NC(=O)[C@H](Cc1ccccc1)NC(=O)[C@H](CC(C)C)NC(=O)[C@H](CCCNC(=N)N)NC(=O)[C@H](C)NC(=O)[C@H](C)NC(=O)[C@H](CCC(=O)O)NC(=O)[C@H](CCCCN)NC(=O)[C@H](CCC(=O)O)NC(=O)[C@H](CC(C)C)NC(=O)[C@H](CCC(N)=O)NC(=O)[C@@H](NC(=O)[C@H](CO)NC(=O)[C@H](CC(C)C)NC(=O)[C@H](CC(=O)O)NC(=O)[C@H](CO)NC(=O)[C@@H](NC(=O)[C@H](Cc1ccccc1)NC(=O)[C@@H](NC(=O)CNC(=O)[C@H](CCC(=O)O)NC(=O)C(C)(C)NC(=O)[C@@H](N)Cc1ccc(O)cc1)[C@@H](C)O)[C@@H](C)O)[C@@H](C)CC)C(=O)N[C@@H](CCC(=O)O)C(=O)N[C@@H](Cc1c[nH]c2ccccc12)C(=O)N[C@@H](CC(C)C)C(=O)N[C@@H](CC(C)C)C(=O)N[C@@H](C)C(=O)NCC(=O)NCC(=O)N1CCC[C@H]1C(=O)N[C@@H](CO)C(=O)N[C@@H](CO)C(=O)NCC(=O)N[C@@H](C)C(=O)N1CCC[C@H]1C(=O)N1CCC[C@H]1C(=O)N1CCC[C@H]1C(=O)N[C@@H](CO)C(N)=O) [Compound 18]”, for which the blood glucose result is recorded as “significantly reduce blood glucose”.

Regarding “Y(aib)EGTFTSDLSIQLEKEAVKLFIEWLLAGGPSSGAPPPS-NH2 (Y[Aib]EGTFTSDLSIQLEKEAVKLFIEWLLAGGPSSGAPPPS-NH2; N-terminus assumed; SMILES CC[C@H](C)[C@H](NC(=O)[C@H](CO)NC(=O)[C@H](CC(C)C)NC(=O)[C@H](CC(=O)O)NC(=O)[C@H](CO)NC(=O)[C@@H](NC(=O)[C@H](Cc1ccccc1)NC(=O)[C@@H](NC(=O)CNC(=O)[C@H](CCC(=O)O)NC(=O)C(C)(C)NC(=O)[C@@H](N)Cc1ccc(O)cc1)[C@@H](C)O)[C@@H](C)O)C(=O)N[C@@H](CCC(N)=O)C(=O)N[C@@H](CC(C)C)C(=O)N[C@@H](CCC(=O)O)C(=O)N[C@@H](CCCCN)C(=O)N[C@@H](CCC(=O)O)C(=O)N[C@@H](C)C(=O)N[C@H](C(=O)N[C@@H](CCCCN)C(=O)N[C@@H](CC(C)C)C(=O)N[C@@H](Cc1ccccc1)C(=O)N[C@H](C(=O)N[C@@H](CCC(=O)O)C(=O)N[C@@H](Cc1c[nH]c2ccccc12)C(=O)N[C@@H](CC(C)C)C(=O)N[C@@H](CC(C)C)C(=O)N[C@@H](C)C(=O)NCC(=O)NCC(=O)N1CCC[C@H]1C(=O)N[C@@H](CO)C(=O)N[C@@H](CO)C(=O)NCC(=O)N[C@@H](C)C(=O)N1CCC[C@H]1C(=O)N1CCC[C@H]1C(=O)N1CCC[C@H]1C(=O)N[C@@H](CO)C(N)=O)[C@@H](C)CC)C(C)C) [Compound 24]”, the blood glucose result was “significantly reduce blood glucose”. Take “Y(aib)EGTFTSDLSIQLEKEAVRLFIEWLLAGGPSSGAPPPS-NH2 (Y[Aib]EGTFTSDLSIQLEKEAVRLFIEWLLAGGPSSGAPPPS-NH2; N-terminus assumed; SMILES CC[C@H](C)[C@H](NC(=O)[C@H](CO)NC(=O)[C@H](CC(C)C)NC(=O)[C@H](CC(=O)O)NC(=O)[C@H](CO)NC(=O)[C@@H](NC(=O)[C@H](Cc1ccccc1)NC(=O)[C@@H](NC(=O)CNC(=O)[C@H](CCC(=O)O)NC(=O)C(C)(C)NC(=O)[C@@H](N)Cc1ccc(O)cc1)[C@@H](C)O)[C@@H](C)O)C(=O)N[C@@H](CCC(N)=O)C(=O)N[C@@H](CC(C)C)C(=O)N[C@@H](CCC(=O)O)C(=O)N[C@@H](CCCCN)C(=O)N[C@@H](CCC(=O)O)C(=O)N[C@@H](C)C(=O)N[C@H](C(=O)N[C@@H](CCCNC(=N)N)C(=O)N[C@@H](CC(C)C)C(=O)N[C@@H](Cc1ccccc1)C(=O)N[C@H](C(=O)N[C@@H](CCC(=O)O)C(=O)N[C@@H](Cc1c[nH]c2ccccc12)C(=O)N[C@@H](CC(C)C)C(=O)N[C@@H](CC(C)C)C(=O)N[C@@H](C)C(=O)NCC(=O)NCC(=O)N1CCC[C@H]1C(=O)N[C@@H](CO)C(=O)N[C@@H](CO)C(=O)NCC(=O)N[C@@H](C)C(=O)N1CCC[C@H]1C(=O)N1CCC[C@H]1C(=O)N1CCC[C@H]1C(=O)N[C@@H](CO)C(N)=O)[C@@H](C)CC)C(C)C) [Compound 19]”: the blood glucose result is on record as “significantly reduce blood glucose”. The result for “Y(aib)EGTFTSDYSIYLDEEAVKLFVNWLIAGGPSSGAPPPS-NH2 (Y[Aib]EGTFTSDYSIYLDEEAVKLFVNWLIAGGPSSGAPPPS-NH2; N-terminus assumed; SMILES CC[C@H](C)[C@H](NC(=O)[C@H](CC(C)C)NC(=O)[C@H](Cc1c[nH]c2ccccc12)NC(=O)[C@H](CC(N)=O)NC(=O)[C@@H](NC(=O)[C@H](Cc1ccccc1)NC(=O)[C@H](CC(C)C)NC(=O)[C@H](CCCCN)NC(=O)[C@@H](NC(=O)[C@H](C)NC(=O)[C@H](CCC(=O)O)NC(=O)[C@H](CCC(=O)O)NC(=O)[C@H](CC(=O)O)NC(=O)[C@H](CC(C)C)NC(=O)[C@H](Cc1ccc(O)cc1)NC(=O)[C@@H](NC(=O)[C@H](CO)NC(=O)[C@H](Cc1ccc(O)cc1)NC(=O)[C@H](CC(=O)O)NC(=O)[C@H](CO)NC(=O)[C@@H](NC(=O)[C@H](Cc1ccccc1)NC(=O)[C@@H](NC(=O)CNC(=O)[C@H](CCC(=O)O)NC(=O)C(C)(C)NC(=O)[C@@H](N)Cc1ccc(O)cc1)[C@@H](C)O)[C@@H](C)O)[C@@H](C)CC)C(C)C)C(C)C)C(=O)N[C@@H](C)C(=O)NCC(=O)NCC(=O)N1CCC[C@H]1C(=O)N[C@@H](CO)C(=O)N[C@@H](CO)C(=O)NCC(=O)N[C@@H](C)C(=O)N1CCC[C@H]1C(=O)N1CCC[C@H]1C(=O)N1CCC[C@H]1C(=O)N[C@@H](CO)C(N)=O) [Compound 2]” reads “significantly reduce blood glucose”; that for “Y(aib)EGTFTSDYSIYLDEEAVRLFVNWLIAGGPSSGAPPPS-NH2 (Y[Aib]EGTFTSDYSIYLDEEAVRLFVNWLIAGGPSSGAPPPS-NH2; N-terminus assumed; SMILES CC[C@H](C)[C@H](NC(=O)[C@H](CC(C)C)NC(=O)[C@H](Cc1c[nH]c2ccccc12)NC(=O)[C@H](CC(N)=O)NC(=O)[C@@H](NC(=O)[C@H](Cc1ccccc1)NC(=O)[C@H](CC(C)C)NC(=O)[C@H](CCCNC(=N)N)NC(=O)[C@@H](NC(=O)[C@H](C)NC(=O)[C@H](CCC(=O)O)NC(=O)[C@H](CCC(=O)O)NC(=O)[C@H](CC(=O)O)NC(=O)[C@H](CC(C)C)NC(=O)[C@H](Cc1ccc(O)cc1)NC(=O)[C@@H](NC(=O)[C@H](CO)NC(=O)[C@H](Cc1ccc(O)cc1)NC(=O)[C@H](CC(=O)O)NC(=O)[C@H](CO)NC(=O)[C@@H](NC(=O)[C@H](Cc1ccccc1)NC(=O)[C@@H](NC(=O)CNC(=O)[C@H](CCC(=O)O)NC(=O)C(C)(C)NC(=O)[C@@H](N)Cc1ccc(O)cc1)[C@@H](C)O)[C@@H](C)O)[C@@H](C)CC)C(C)C)C(C)C)C(=O)N[C@@H](C)C(=O)NCC(=O)NCC(=O)N1CCC[C@H]1C(=O)N[C@@H](CO)C(=O)N[C@@H](CO)C(=O)NCC(=O)N[C@@H](C)C(=O)N1CCC[C@H]1C(=O)N1CCC[C@H]1C(=O)N1CCC[C@H]1C(=O)N[C@@H](CO)C(N)=O) [Compound 1]”, “significantly reduce blood glucose”. With “Y(aib)EGTFTSDYSIYLEKEAVRLFIEWLIAGGPSSGAPPPS-NH2 (Y[Aib]EGTFTSDYSIYLEKEAVRLFIEWLIAGGPSSGAPPPS-NH2; N-terminus assumed; SMILES CC[C@H](C)[C@H](NC(=O)[C@H](CC(C)C)NC(=O)[C@H](Cc1c[nH]c2ccccc12)NC(=O)[C@H](CCC(=O)O)NC(=O)[C@@H](NC(=O)[C@H](Cc1ccccc1)NC(=O)[C@H](CC(C)C)NC(=O)[C@H](CCCNC(=N)N)NC(=O)[C@@H](NC(=O)[C@H](C)NC(=O)[C@H](CCC(=O)O)NC(=O)[C@H](CCCCN)NC(=O)[C@H](CCC(=O)O)NC(=O)[C@H](CC(C)C)NC(=O)[C@H](Cc1ccc(O)cc1)NC(=O)[C@@H](NC(=O)[C@H](CO)NC(=O)[C@H](Cc1ccc(O)cc1)NC(=O)[C@H](CC(=O)O)NC(=O)[C@H](CO)NC(=O)[C@@H](NC(=O)[C@H](Cc1ccccc1)NC(=O)[C@@H](NC(=O)CNC(=O)[C@H](CCC(=O)O)NC(=O)C(C)(C)NC(=O)[C@@H](N)Cc1ccc(O)cc1)[C@@H](C)O)[C@@H](C)O)[C@@H](C)CC)C(C)C)[C@@H](C)CC)C(=O)N[C@@H](C)C(=O)NCC(=O)NCC(=O)N1CCC[C@H]1C(=O)N[C@@H](CO)C(=O)N[C@@H](CO)C(=O)NCC(=O)N[C@@H](C)C(=O)N1CCC[C@H]1C(=O)N1CCC[C@H]1C(=O)N1CCC[C@H]1C(=O)N[C@@H](CO)C(N)=O) [Compound 16]” the entry was “significantly reduce blood glucose”.
